Target: T1, KRAS (aa 1-169) G12C, C51S, C80L, C118S (Homo sapiens, UniProt P01116, C118S/C51S/C80L/G12C)
T1 construct: The KRAS (aa 1-169) G12C, C51S, C80L, C118S with a His-tag; made in house
Experiment: KRAS G12C SOS1-mediated nucleotide exchange / GST-cRaf RBD binding FRET assay
Type: biochemical
Conditions: GDP-loaded KRAS G12C pre-incubated with compound at 24° C. for 3 hrs; SOS1, GTPγS and GST-cRaf RBD added; FRET 665 nm/620 nm
Protocol: Biochemical Functional Assay:
The KRAS (aa 1-169) G12C, C51S, C80L, C118S with a His-tag was expressed, purified and loaded with GDP in house. All protein and substrate solutions were prepared in assay buffer containing 25 mM HEPES pH7.5, 10 mM MgCl2, and 0.01% Triton X-100. Purified GDP-loaded KRAS (aa 1-169) G12C, C51S, C80L, C118S protein was pre-incubated with a serially diluted compound at 24° C. for 3 hrs. Purified SOS1 (aa 564-1049) protein, GTPγS (Sigma) and GST-cRaf RBD (aa 1-149) were then added to each well and incubated at 24° C. for additional 3 hrs. […] Following the incubation, Mab Anti-6HIS-Tb cryptate (Cisbio) and Mab Anti GST-XL665 (Cisbio) were added and further incubated at 24° C. for 3 hrs. The binding interaction between active GTPγS KRAS G12C and GST-cRaf RBD brings the Tb and XL665 into close proximity enabling an increased FRET signal (Ex337 nm, Em665 nm/620 nm). The inhibition percentage of nucleotide exchange reaction in presence of increasing concentrations of compounds was calculated based on the ratio of fluorescence at 665 nm to that at 620 nm detected on a BMG PHERAstar FSX instrument. The IC50 value of each compound was calculated from fitting the data to the four-parameter logistic model by Dotmatics.

T1 sequence (P01116 1-169 isoform P01116-2 G12C/C51S/C80L/C118S): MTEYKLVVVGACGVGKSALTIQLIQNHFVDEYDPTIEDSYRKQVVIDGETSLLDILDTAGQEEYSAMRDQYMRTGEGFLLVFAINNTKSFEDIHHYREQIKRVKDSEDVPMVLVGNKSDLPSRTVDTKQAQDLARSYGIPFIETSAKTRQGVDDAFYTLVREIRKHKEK

Q: For C=CC(=O)N1CCN(c2nc(OC[C@@H]3CCCN3C)nc3c2CN(C2c4ccccc4-c4ccccc42)C3)C[C@@H]1CC#N [Example 40, 2-((S)-4-(6-(9H-fluoren-9-yl)-2-(((S)-1-methylpyrrolidin-2-yl)methoxy)-6,7-dihydro-5H-pyrrolo[3,4-d]pyrimidin-4-yl)-1-acryloylpiperazin-2-yl)acetonitrile], which IC50 is on record?
A: 1510 nM

Q: C=CC(=O)N1CCN(c2nc(OC[C@@H]3CCCN3C)nc3c2CN(C(=O)c2cc(N)cc4ccccc24)C3)C[C@@H]1CC#N [Example 50] was tested. Which IC50 did it give?
A: 6.16 nM

Q: C=CC(=O)N1CCN(c2nc(OC[C@@H]3CCCN3C)nc3c2CN(C(=O)c2cccc4cccc(O)c24)C3)C[C@@H]1CC#N [Example 56] was tested. Which IC50 did it give?
A: 941 nM

Q: C=CC(=O)N1CCN(c2nc(OC[C@@H]3CCCN3C)nc3c2CN(Cc2c(O)ccc4ccccc24)C3)C[C@@H]1CC#N [Example 42, 2-((S)-1-acryloyl-4-(6-((2-hydroxynaphthalen-1-yl)methyl)-2-(((S)-1-methylpyrrolidin-2-yl)methoxy)-6,7-dihydro-5H-pyrrolo[3,4-d]pyrimidin-4-yl)piperazin-2-yl)acetonitrile] was tested. Which IC50 did it give?
A: 9980 nM

Q: C=CC(=O)N1CCN(c2nc(OC3CCN(C)CC3)nc3c2CN(C2Cc4cccc5cccc2c45)C3)CC1CC#N (single isomer, unassigned) [Example 17 (P1)] was tested. Which IC50 did it give?
A: 2200 nM

Q: How did the IC50 turn out when C=CC(=O)N1CCN(c2nc(OC[C@@H]3CCCN3C)nc3c2CN(Cc2cccc(C)c2C)C3)C[C@@H]1CC#N [Example 5, 2-((S)-1-acryloyl-4-(6-(2,3-dimethylbenzyl)-2-(((S)-1-methylpyrrolidin-2-yl)methoxy)-6,7-dihydro-5H-pyrrolo[3,4-d]pyrimidin-4-yl)piperazin-2-yl)acetonitrile] was run?
A: 56.1 nM

Q: How did the IC50 turn out when C=CC(=O)N1CCN(c2nc(OC[C@@H]3CCCN3C)nc3c2CN(C(=O)c2cc(O)ccc2F)C3)C[C@@H]1CC#N [Example 46] was run?
A: 172 nM

Q: With C=CC(=O)N1CCN(c2nc(OC[C@@H]3CCCN3C)nc3c2CN(C(=O)c2cc(O)cc4ccccc24)C3)C[C@@H]1CC#N [Example 29, 2-((S)-1-acryloyl-4-(6-(3-hydroxy-1-naphthoyl)-2-(((S)-1-methylpyrrolidin-2-yl)methoxy)-6,7-dihydro-5H-pyrrolo[3,4-d]pyrimidin-4-yl)piperazin-2-yl)acetonitrile] as the molecule, how does the IC50 read?
A: 2.42 nM

Q: Which IC50 does the source give for C=CC(=O)N1CCN(c2nc(OC[C@@H]3CCCN3C)nc3c2CN(c2cccc4c2CCC4)C3)C[C@@H]1CC#N [Example 27, 2-((S)-1-acryloyl-4-(6-(2,3-dihydro-1H-inden-4-yl)-2-(((S)-1-methylpyrrolidin-2-yl)methoxy)-6,7-dihydro-5H-pyrrolo[3,4-d]pyrimidin-4-yl)piperazin-2-yl)acetonitrile] here?
A: 3720 nM

Q: How did the IC50 turn out when C=CC(=O)N1CCN(c2nc(OC[C@@H]3CCCN3C)nc3c2CN(C(=O)c2cccc4cccc(C5CC5)c24)C3)C[C@@H]1CC#N [Example 35, 2-((S)-1-acryloyl-4-(6-(8-cyclopropyl-1-naphthoyl)-2-(((S)-1-methylpyrrolidin-2-yl)methoxy)-6,7-dihydro-5H-pyrrolo[3,4-d]pyrimidin-4-yl)piperazin-2-yl)acetonitrile] was run?
A: 256 nM

Q: How did the IC50 turn out when C=CC(=O)N1CCN(c2nc(OC[C@@H]3CCCN3C)nc3c2CN(Cc2cccc4cccc(C)c24)C3)C[C@@H]1CC#N [Example 8, 2-((S)-1-acryloyl-4-(6-((8-methylnaphthalen-1-yl)methyl)-2-(((S)-1-methylpyrrolidin-2-yl)methoxy)-6,7-dihydro-5H-pyrrolo[3,4-d]pyrimidin-4-yl)piperazin-2-yl)acetonitrile] was run?
A: 495 nM

Q: How did the IC50 turn out when C=CC(=O)N1CCN(c2nc(OC[C@@H]3C[C@@H](O)CN3C)nc3c2CN(C2Cc4cccc5cccc2c45)C3)C[C@@H]1CC#N (stereo partly shown) [Example 51] was run?
A: 16.1 nM

Q: With C=CC(=O)N1CCN(c2nc(OC[C@@H]3CCCN3C)nc3c2CN(C(=O)c2cccc4cccc(C)c24)C3)C[C@@H]1CC#N [Example 33, 2-((S)-1-acryloyl-4-(6-(8-methyl-1-naphthoyl)-2-(((S)-1-methylpyrrolidin-2-yl)methoxy)-6,7-dihydro-5H-pyrrolo[3,4-d]pyrimidin-4-yl)piperazin-2-yl)acetonitrile] as the molecule, how does the IC50 read?
A: 22.4 nM

Q: C=CC(=O)N1CCN(c2nc(OC[C@@H]3CCCN3C)nc3c2CN(Cc2cccc4cccc(Cl)c24)C3)C[C@@H]1CC#N [Example 9, 2-((S)-1-acryloyl-4-(6-((8-chloronaphthalen-1-yl)methyl)-2-(((S)-1-methylpyrrolidin-2-yl)methoxy)-6,7-dihydro-5H-pyrrolo[3,4-d]pyrimidin-4-yl)piperazin-2-yl)acetonitrile] was tested. Which IC50 did it give?
A: 265 nM

Q: C=CC(=O)N1CCN(c2nc(N3CC(N(C)C)C3)nc3c2CN(C2Cc4cccc5cccc2c45)C3)CC1CC#N (single isomer, unassigned) [Example 16 (P1)] was tested. Which IC50 did it give?
A: 5650 nM

Q: For C=CC(=O)N1CCN(c2nc(OC3CCN(C4CCOCC4)CC3)nc3c2CN(C2Cc4cccc5cccc2c45)C3)C[C@@H]1CC#N (stereo partly drawn) [Example 12, 2-((2S)-1-acryloyl-4-(6-(1,2-dihydroacenaphthylen-1-yl)-2-((1-(tetrahydro-2H-pyran-4-yl)piperidin-4-yl)oxy)-6,7-dihydro-5H-pyrrolo[3,4-d]pyrimidin-4-yl)piperazin-2-yl)acetonitrile], which IC50 is on record?
A: 379 nM

Q: How did the IC50 turn out when C=CC(=O)N1CCN(c2nc(OC[C@@H]3CCCN3C)nc3c2CN(C(=O)c2c(C)ccc4[nH]ncc24)C3)C[C@@H]1CC#N [Example 31, 2-((S)-1-acryloyl-4-(6-(5-methyl-1H-indazole-4-carbonyl)-2-(((S)-1-methylpyrrolidin-2-yl)methoxy)-6,7-dihydro-5H-pyrrolo[3,4-d]pyrimidin-4-yl)piperazin-2-yl)acetonitrile] was run?
A: 301 nM

Q: For CN(C)C/C=C/C(=O)N1CCN(c2nc(OC[C@@H]3CCCN3C)nc3c2CN(Cc2cccc4ccccc24)C3)CC1 [Example 2, (S, E)-4-(dimethylamino)-1-(4-(2-((1-methylpyrrolidin-2-yl)methoxy)-6-(naphthalen-1-ylmethyl)-6,7-dihydro-5H-pyrrolo[3,4-d]pyrimidin-4-yl)piperazin-1-yl)but-2-en-1-one], which IC50 is on record?
A: 46000 nM

Q: C=CC(=O)N1CCN(c2nc(OC[C@@H]3CCCN3C)nc3c2CN(Cc2cccc(C)c2Cl)C3)C[C@@H]1CC#N [Example 53] was tested. Which IC50 did it give?
A: 14.9 nM

Q: With C=CC(=O)N1CCN(c2nc(OC3CCN(C)CC3)nc3c2CN(C2Cc4cccc5cccc2c45)C3)CC1CC#N (single isomer, unassigned) [Example 17 (P2)] as the molecule, how does the IC50 read?
A: 949 nM

Q: With C=CC(=O)N1CCN(c2nc(OC[C@@H]3CCCN3C)nc3c2CN(Cc2ccccc2)C3=O)C[C@@H]1CC#N [Example 44] as the molecule, how does the IC50 read?
A: 9010 nM

Q: Which IC50 does the source give for C=CC(=O)N1CCN(c2nc(OC[C@@H]3CCCN3C)nc3c2CN(C(C)c2cccc4ccccc24)C3)C[C@@H]1CC#N (stereo partly drawn) [Example 11, 2-((2S)-1-acryloyl-4-(2-(((S)-1-methylpyrrolidin-2-yl)methoxy)-6-(1-(naphthalen-1-yl)ethyl)-6,7-dihydro-5H-pyrrolo[3,4-d]pyrimidin-4-yl)piperazin-2-yl)acetonitrile] here?
A: 170 nM

Q: How did the IC50 turn out when C=CC(=O)N1CCN(c2nc(N3CC(N(C)C)C3)nc3c2CN(C2Cc4cccc5cccc2c45)C3)CC1CC#N (single isomer, unassigned) [Example 16 (P2)] was run?
A: 256 nM

Q: Which IC50 does the source give for C=CC(=O)N1CCN(c2nc(OCC3CCCN3C)nc3c2CN(C2Cc4cccc5cccc2c45)C3)CC1CC#N (single isomer, unassigned) [Example 15 (P2)] here?
A: 5.27 nM

Q: With C=CC(=O)N1CCN(c2nc(OC[C@@H]3CCCN3C)nc3c2CN(Cc2ccc4ccccc4c2)C3)C[C@@H]1CC#N [Example 20, 2-((S)-1-acryloyl-4-(2-(((S)-1-methylpyrrolidin-2-yl)methoxy)-6-(naphthalen-2-ylmethyl)-6,7-dihydro-5H-pyrrolo[3,4-d]pyrimidin-4-yl)piperazin-2-yl)acetonitrile] as the molecule, how does the IC50 read?
A: 2880 nM

Q: For C=CC(=O)N1CCN(c2nc(OC[C@@H]3CCCN3C)nc3cn(Cc4cccc5ccccc45)cc23)C[C@@H]1CC#N [Example 7, 2-((S)-1-acryloyl-4-(2-(((S)-1-methylpyrrolidin-2-yl)methoxy)-6-(naphthalen-1-ylmethyl)-6H-pyrrolo[3,4-d]pyrimidin-yl)piperazin-2-yl)acetonitrile], which IC50 is on record?
A: 174 nM

Q: How did the IC50 turn out when C=CC(=O)N1CCN(c2nc(OC[C@@H]3CCCN3C)nc3c2CN(C(=O)c2cccc4cccc(Cl)c24)C3)C[C@@H]1CC#N [Example 30, 2-((S)-1-acryloyl-4-(6-(8-chloro-1-naphthoyl)-2-(((S)-1-methylpyrrolidin-2-yl)methoxy)-6,7-dihydro-5H-pyrrolo[3,4-d]pyrimidin-4-yl)piperazin-2-yl)acetonitrile] was run?
A: 15 nM

Q: How did the IC50 turn out when C=CC(=O)N1CCN(c2nc(OC[C@@H]3CCCN3C)nc3c2CN(Cc2cc(O)ccc2F)C3)C[C@@H]1CC#N [Example 22, 2-((S)-1-acryloyl-4-(6-(2-fluoro-5-hydroxybenzyl)-2-(((S)-1-methylpyrrolidin-2-yl)methoxy)-6,7-dihydro-5H-pyrrolo[3,4-d]pyrimidin-4-yl)piperazin-2-yl)acetonitrile] was run?
A: 9.63 nM

— patent US12630552B2, “Inhibitors of KRAS G12C” (BEIGENE, LTD., priority 2019, dated 2026)
